Experimental data published in patent publication US20120185955A1, “HEDGEHOG INHIBITOR ASSAY” (priority 2005, published 2012).
Each block holds one molecule with its values, some of them ahead of it.

What was measured:
[1] = test system: Gli reporter activity in Sufu−/− MEFs; experiment: 8×GliLuc luciferase reporter assay in Sufu−/− MEFs; type: cell-based, mouse
Procedure: For the luciferase reporter assays, 20,000 MEF cells were seeded into each well of a 24-well plate in MEF medium. The following day, cells were transfected using FuGENE 6 (Roche) with 300 ng of the luciferase reporter plasmids 8×GliLuc and 8×Gli^mutLuc (58) with or without 300 ng of the pMYC-SUFU expression plasmid (9), 300 ng of a constitutively active PKA catalytic subunit expression plasmid (59) or with 300 ng of the TOPflash and FOPflash reporter plasmids (Upstate Biotechnology), together with 50 ng the Renilla luciferase phRL-TK reporter (Promega) to monitor the transfection efficiency. […] The assays were conducted in triplicate and repeated at least three times. The values were normalized to the Renilla reporter before calculating relative levels.

[2] = test system: GLI-induced transcription in Sufu−/− MEFs; experiment: Substance testing: Hh/Gli reporter 8×GliLuc in Sufu−/− MEFs (inhibition of GLI-induced transcription); type: cell-based, mouse; conditions: 72 h of treatment
Gli1 = conditions: HEK293 cells transfected with Gli1 plasmid; 48 h treatment
Gli2 = conditions: HEK293 cells transfected with Gli2 plasmid; 48 h treatment
[3] = test system: EGFP::Gli1 nuclear export in MEFs; experiment: GLI1 subcellular localization in MEFs (EGFP::GLI1, confocal); type: cell-based, mouse; conditions: Wt, Sufu−/− and Ptch1−/− MEFs; 10 ng/ml Leptomycin B, 3-6 hours
Procedure: Wt, Sufu^−/− and Ptch1^−/− MEFs (1×10^6 cells) were each transfected with 5 μg of the expression constructs containing GLI1 cDNA fused in frame 3′ of EGFP [EGFP::GLI1, (9)] or with the parental EGFP plasmid alone (BD Biosciences Clontech) in MEF 1 solution using Nucleofector technology, program T-20 (Amaxa Biosystems), and seeded onto slide chambers followed by culturing overnight. Twenty-four hours after transfection, cells were either treated with 10 ng/ml Leptomycin B (Sigma) for 3-6 hours or left untreated, washed in PBS, fixed in 4% PFA, washed in PBS again and incubated with DRAQ5 (Alexis Biochemicals) for visualization of cell nuclei, followed by mounting using ProLong Gold antifade reagent (Invitrogen). Fluorescence was visualized using a Zeiss LSM510 confocal microscope with lasers set at 488 nm for EGFP and at 633 nm for DRAQ5.

[4] = test system: β-Galactosidase reporter enzyme (pSV40-lacZ); experiment: Gli-independent β-Galactosidase construct (pSV40-lacZ) control; type: cell-based

Structure (SMILES): CNC1CCC(N(Cc2cccc(-c3ccncc3)c2)C(=O)c2sc3ccccc3c2Cl)CC1 (stereo not drawn) [SAG]
- Effect on Gli reporter activity (8×GliLuc) ([1]; Sufu−/− MEFs, 10 μM cyclopamine or 100 nM SAG for two days): No further increase in Gli reporter activity

Structure (SMILES): CC1=C2C[C@H]3[C@@H](CC=C4C[C@@H](O)CC[C@@]43C)[C@@H]2CC[C@]12O[C@@H]1C[C@H](C)CN[C@H]1[C@H]2C [Cyclopamine]
- Luciferase signal intensity (8×GliLuc, renilla-normalised) [2]: ineffective
- Gli1 inhibition (12×GliBS-Luc reporter) (Gli1): inactive
- Gli2 inhibition (12×GliBS-Luc reporter) (Gli2): inactive

Structure (SMILES): C=C[C@@]1(C)CC(=O)[C@]2(O)[C@@]3(C)[C@@H](O)CCC(C)(C)[C@@H]3[C@H](O)[C@H](OC(C)=O)[C@@]2(C)O1 [forskolin]
- inhibition at 100 µM ([1]; Mus musculus, 24 h, Sufu−/− MEFs, 100 μM forskolin, one day, read-out: Inhibition of the Gli-mediated response): ~50%

Structure (SMILES): CCC(=C/[C@H](C)C/C=C/C(C)=C/[C@@H](C)C(=O)[C@@H](C)[C@H](O)[C@@H](C)C/C(C)=C/C(=O)O)/C=C/[C@@H]1OC(=O)C=C[C@@H]1C [LMB, Leptomycin B]
- Subcellular localization of EGFP::Gli1 fusion protein [3]: strong nuclear retention

Structure (SMILES): CN(C)CCCNc1ccc2c(c1)C(=O)c1ccccc1C2=O [GANT55, 2-(3-Dimethylamino-propylamino)-anthraquinone]
- Unspecific inhibition of the β-Galactosidase reporter enzyme [4]: not due to unspecific inhibition of the reporter enzyme
- Luciferase signal intensity (8×GliLuc, renilla-normalised) [2]: reduces signal intensity in a dose-dependent manner

- Effect on the Gli response (8×GliLuc) ([1]; MEFs, 1 μM H-89, one day): no significant effect
Structure (SMILES): O=S(=O)(NCCNC/C=C/c1ccc(Br)cc1)c1cccc2cnccc12 [H-89]
